The source made the active and inactive calls. The rule behind the calls is not given here.
Assays:
Escherichia coli = assay: Antibacterial activity against Escherichia coli ATCC 11775 assessed as inhibition of microbial growth at 0.01 to 30 uM after 24 hrs by spectrophotometric analysis; format: functional, organism-based; settings: dose 0.01-30 µM
Staphylococcus aureus [1] = assay: Antibacterial activity against Staphylococcus aureus ATCC 25923 assessed as inhibition of microbial growth at 0.01 to 30 uM after 24 hrs by spectrophotometric analysis; format: functional, organism-based; settings: dose 0.01-30 µM
Staphylococcus aureus [2] = assay: Antibacterial activity against methicillin-resistant Staphylococcus aureus AUS-RBWH-MRSA-02 assessed as inhibition of microbial growth at 0.01 to 30 uM after 24 hrs by spectrophotometric analysis; format: functional, organism-based; settings: dose 0.01-30 µM
Candida albicans = assay: Antifungal activity against Candida albicans ATCC 10231 assessed as inhibition of fungal growth at 0.01 to 30 uM after 24 hrs by spectrophotometric analysis; format: functional, organism-based; settings: dose 0.01-30 µM
SW-620 = assay: Cytotoxicity against human SW620 cells assessed as growth inhibition at 0.01 to 30 uM incubated for 48 hrs by MTT assay; format: functional, cell-based; settings: dose 0.01-30 µM
[3] = biological target: ATP-dependent translocase ABCB1 (Homo sapiens, UniProt P08183); assay: Inhibition of P-gp in human SW620/AD300 cells assessed as reduction in doxorubicin IC50 at 5 uM incubated for 48 hrs by MTT assat; format: functional, cell-based; settings: sw620/ad300, 48 h
Sequence of ATP-dependent translocase ABCB1 (P08183 whole entry): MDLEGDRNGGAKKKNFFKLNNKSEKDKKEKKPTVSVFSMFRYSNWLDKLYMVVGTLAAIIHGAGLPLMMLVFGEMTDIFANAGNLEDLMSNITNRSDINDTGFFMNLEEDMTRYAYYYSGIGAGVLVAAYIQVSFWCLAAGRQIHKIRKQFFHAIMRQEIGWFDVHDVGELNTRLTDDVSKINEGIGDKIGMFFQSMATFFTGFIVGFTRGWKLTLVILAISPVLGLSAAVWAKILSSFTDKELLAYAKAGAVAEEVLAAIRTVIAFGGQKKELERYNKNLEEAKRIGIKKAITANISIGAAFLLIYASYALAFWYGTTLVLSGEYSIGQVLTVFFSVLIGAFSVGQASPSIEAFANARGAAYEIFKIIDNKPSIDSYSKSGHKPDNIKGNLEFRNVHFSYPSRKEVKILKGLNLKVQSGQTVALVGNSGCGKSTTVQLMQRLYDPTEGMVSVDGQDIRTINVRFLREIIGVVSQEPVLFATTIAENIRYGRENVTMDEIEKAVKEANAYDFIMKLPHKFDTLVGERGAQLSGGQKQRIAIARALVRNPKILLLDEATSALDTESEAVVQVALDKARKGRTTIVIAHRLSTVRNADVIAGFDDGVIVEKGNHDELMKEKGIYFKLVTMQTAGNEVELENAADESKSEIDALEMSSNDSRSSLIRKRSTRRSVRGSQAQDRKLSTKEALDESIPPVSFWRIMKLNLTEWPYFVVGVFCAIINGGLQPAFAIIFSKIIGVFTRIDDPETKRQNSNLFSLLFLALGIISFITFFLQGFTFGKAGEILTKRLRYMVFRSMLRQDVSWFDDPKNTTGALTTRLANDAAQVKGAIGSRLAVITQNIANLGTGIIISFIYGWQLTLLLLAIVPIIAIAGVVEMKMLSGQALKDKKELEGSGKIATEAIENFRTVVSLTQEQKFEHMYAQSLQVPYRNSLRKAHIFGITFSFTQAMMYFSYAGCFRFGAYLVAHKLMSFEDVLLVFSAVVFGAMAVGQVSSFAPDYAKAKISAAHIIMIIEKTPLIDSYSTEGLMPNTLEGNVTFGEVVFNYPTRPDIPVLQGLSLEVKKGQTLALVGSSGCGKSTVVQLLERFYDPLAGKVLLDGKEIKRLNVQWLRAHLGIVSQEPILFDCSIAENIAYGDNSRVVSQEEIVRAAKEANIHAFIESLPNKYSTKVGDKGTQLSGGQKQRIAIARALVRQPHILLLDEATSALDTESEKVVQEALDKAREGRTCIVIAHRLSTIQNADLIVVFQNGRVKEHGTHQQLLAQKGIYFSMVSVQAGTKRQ

Structure (SMILES)	inhibition (Escherichia coli)	inhibition (Staphylococcus aureus [1])	inhibition (Staphylococcus aureus [2])	inhibition (Candida albicans)	growth inhibition (GI) (SW-620)	inhibition (INH) [3]
O=C(O)c1cccn1Cc1cccc2c1OCO2	inactive	inactive	inactive	inactive	inactive	Not Active
COC(=O)c1cccn1Cc1cccc2c1OCO2	inactive	inactive	inactive	inactive	inactive	Not Active
COc1cccc(Cn2cccc2C(=O)O)c1OC	inactive	inactive	inactive	inactive	inactive	Not Active
COC(=O)c1cccn1Cc1cccc(OC)c1OC	inactive	inactive	inactive	inactive	inactive	Not Active
O=C1c2ccc(O)c(O)c2Cn2cccc21	inactive	inactive	inactive	inactive	inactive	Not Active
O=C(OCc1cccc2c1OCO2)c1ccc[nH]1	inactive	inactive	inactive	inactive	inactive	Not Active
O=C1c2ccc3c(c2Cn2cccc21)OCO3	inactive	inactive	inactive	inactive	inactive	Not Active
COc1ccc2c(c1OC)Cn1cccc1C2=O	inactive	inactive	inactive	inactive	inactive	Not Active
